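Step 1: Grow cells in 96-well plates. Step 2: Expose to compound for 48 hours at 5 concentrations. Step 3: Interpolate endpoints linearly; if unreached, use highest concentration. Definition used: TGI = concentration required for complete inhibition of growth.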
Legend:
Test in all cases: growth of human tumour cells (NCI), 48 h
[1] = tested on: HOP-92 NSCLC
[2] = tested on: MCF7 breast
[3] = tested on: MDA-N
[4] = tested on: NCI/ADR-RES ovarian
[5] = tested on: OVCAR-8 ovarian
[6] = tested on: SF-295 CNS
[7] = tested on: SK-MEL-2 melanoma
[8] = tested on: SN12C renal
[9] = tested on: UO-31 renal
[10] = tested on: KM20L2 colon

| SMILES | TGI [1] [µM] | TGI [2] [µM] | TGI [3] [µM] | TGI [4] [µM] | TGI [5] [µM] | TGI [6] [µM] | TGI [7] [µM] | TGI [8] [µM] | TGI [9] [µM] | TGI [10] [µM] |
| --- | --- | --- | --- | --- | --- | --- | --- | --- | --- | --- |
| C[C@]1(S(=O)(=O)c2ccccc2)C[C@H]2N(Cc3ccccc3)[C@@H]1CCC21OCCO1 | > 100 | > 100 | > 100 | > 100 | > 100 | > 100 | > 100 | > 100 | > 100 |  |
| COc1cc(C=C2C(=O)NC(=S)NC2=O)cc(OC)c1OC | > 100 | > 100 | > 100 | > 100 | > 100 | > 100 | > 100 | > 100 | > 100 |  |
| COC(=O)C1OC(O[C@H]2CC[C@]3(C)[C@H]4CC=C5[C@@H]6CC(C)(C)CC[C@]6(C(=O)OC6OCC(O)C(O)C6OC6OC(C)C(OC7OCC(OC8OCC(O)C(O)C8O)C(O)C7O)C(O)C6O)[C@H](O)C[C@@]5(C)[C@]4(C)CC[C@H]3C2(C)C)C(O)C(O)C1O (some centres undefined) | 4.77 | 6.63 | 3.44 | 21.1 | 13.2 | 8.66 | 10.1 | 3.36 | 3.56 |  |
| COC(=O)c1cc2c(cc1CC(Cc1ccc3c(c1)CCC3)C(=O)OC)CCC2 (centres undefined) | > 100 | 92.7 | > 100 | > 100 | > 100 | > 100 | > 100 | > 100 | > 100 |  |
| COC(=O)[C@H](Cc1ccccc1)NC(=O)c1ccc(CNC(=O)/C=C/c2cccc(Oc3ccccc3)c2)cc1 | 21 | > 100 | 15.3 | > 100 | > 100 | > 100 | 27.7 | 75.9 | > 100 |  |
| O=C1CC(Sc2nc3ccc(I)cc3c(=O)n2Cc2ccccc2)C(=O)NN1 (centres undefined) | 37.2 | 28.2 | 33.4 | 52.1 | 28.4 | 36.9 | 31.8 | 27.6 | 1.97 |  |
| CC1(C)[C@@H](Cn2cnc3c(Cl)nc(N)nc32)CC[C@@]1(C)CO | > 100 | > 100 | 91.7 | > 100 |  | > 100 | 35.1 | > 100 | 15 |  |
| Nc1nc(Nc2ccccc2)sc1C(=O)c1c[nH]c2ccccc12 | 33.2 | 26.9 | 25.3 | 44.7 |  |  | 29.8 | 34.4 | 13.1 |  |
| COc1c(O)c(O)cc2c1-c1ccc(OC)c(=O)cc1C(NC(C)=O)CC2 (centres undefined) | 17.8 | 11.9 | 4.84 | > 69.8 | 62.2 | 20.5 | 50.6 | 42.5 | > 100 | 17.5 |
| Cn1ccnc1Sc1ccc(C=Nc2ccc3nc(SCC(=O)NC4CCCCC4)sc3c2)cc1[N+](=O)[O-] | 32.5 | > 100 | > 100 | > 100 | > 100 | 44.4 | 54.1 | > 100 | > 100 |  |
| N#CCCN(CCC#N)c1ccc(/C=C2\SC(=S)NC2=O)cc1Br | > 100 | > 100 | > 100 | > 100 | > 100 | > 100 | > 100 | > 100 | > 100 |  |
| CC(C)CCn1nc(N)c2nc3ccccc3nc21 | > 100 | > 100 | > 100 | > 100 | > 100 | > 100 | > 100 | > 100 | > 100 |  |
| C=C1C(=O)OC2/C=C(/C)C3(O)OC(C)(CC(OC(=O)C(C)C)C12)CC3OC(C)=O (centres undefined) | 40.1 | 26.3 | 4.94 | > 100 | > 100 | 56.5 | 49.7 | 17.5 | 22.2 |  |
| O=C(O)c1ccc2c(c1)CC1(C2)Cc2cc3c(cc2C1=O)CCC3 (centres undefined) | > 100 | > 100 | > 100 | > 100 | > 100 | > 100 | > 100 | > 100 | > 100 |  |
| CC/C(Cl)=N\OC(=O)Nc1ccc(F)c([N+](=O)[O-])c1 | 12 | > 37.8 | 39.6 | 75.8 | 32.8 | 41.6 | 32 | 47.1 | 14.2 |  |
| CC1C(c2ccc3c(c2)OCO3)c2cc3c(cc2OC1N1CCOCC1)OCO3 (centres undefined) | 78.4 | 65.8 | 29.1 | 60.6 | > 100 | > 93 | 58.8 | > 100 | 85 |  |
| OC1(c2ccc(Cl)cc2)c2ccc(CN3CCCC3)cc2C2=NCCN21 (centres undefined) | 16.1 | 33.4 | 22.8 | > 100 | 29.9 | 29.5 | 34.2 | 31.7 | 27.5 |  |
| O=C(CCc1cccc(O)c1)NCCCNC(=O)CCc1cccc(O)c1 | > 100 | > 100 | > 100 | > 100 | > 100 | > 100 | > 100 | > 100 | > 100 |  |
| Cc1ccc(S(=O)(=O)NC(=O)NNc2ccc(F)cc2)cc1 | > 100 | > 100 | > 100 | > 100 | > 100 | > 100 | > 100 | > 100 | > 31.6 |  |
| COc1cc2c(c(O)c1O)-c1ccc(OC)c(=O)cc1C(NC(C)=O)CC2 (centres undefined) | 31.1 |  |  |  | > 100 | 41.4 | 16.5 | > 80.8 | > 100 | 11 |
| COc1ccc(/C=N/N2C(=O)c3c(N)c(C#N)c(-c4ccccc4)c(-c4ccccc4)c3C2=O)cc1 | > 100 | > 100 | > 100 | > 100 | > 100 | > 100 | > 100 | > 100 | > 100 |  |
| NS(=O)(=O)c1ccc(NC(NC(=O)C(C(F)(F)F)C(F)(F)F)(C(F)(F)F)C(F)(F)F)cc1 | > 100 | > 100 | > 100 | > 100 | > 100 | > 100 | > 100 | > 100 | > 100 |  |

From PubChem BioAssay (NCI)
